{"source": "ChEMBL document CHEMBL6074715", "about": "“Discovery of pyridine-based derivatives as FLT3 inhibitors for the treatment of acute myeloid leukemia” (Eur J Med Chem, 2025)", "key": {"MV4-11": {"test_system": "MV4-11", "experiment": "Antiproliferative activity against human MV4-11 cells assessed as inhibition of cell growth measured after 72 hrs by Celltiter-glo luminescent cell viability assay", "format": "functional, cell-based", "conditions": "MV4-11, 72 h"}, "MOLM-13 [1]": {"test_system": "MOLM-13", "experiment": "Antiproliferative activity against human MOLM-13 cells assessed as inhibition of cell growth measured after 72 hrs by Celltiter-glo luminescent cell viability assay", "format": "functional, cell-based", "conditions": "MOLM-13, 72 h"}, "HL-60": {"test_system": "HL-60", "experiment": "Antiproliferative activity against human HL-60 cells harbouring wild type FLT3 assessed as inhibition of cell growth measured after 72 hrs by Celltiter-glo luminescent cell viability assay", "format": "functional, cell-based", "conditions": "HL-60, 72 h"}, "K562": {"test_system": "K562", "experiment": "Antiproliferative activity against human K562 cells assessed as inhibition of cell growth measured after 72 hrs by Celltiter-glo luminescent cell viability assay", "format": "functional, cell-based", "conditions": "K562, 72 h"}, "EBC-1": {"test_system": "EBC-1", "experiment": "Antiproliferative activity against human EBC-1 cells assessed as inhibition of cell growth measured after 72 hrs by Celltiter-glo luminescent cell viability assay", "format": "functional, cell-based", "conditions": "EBC-1, 72 h"}, "[2]": {"target": "Receptor-type tyrosine-protein kinase FLT3 (Homo sapiens) (UniProt P36888)", "sequence (P36888 whole entry)": "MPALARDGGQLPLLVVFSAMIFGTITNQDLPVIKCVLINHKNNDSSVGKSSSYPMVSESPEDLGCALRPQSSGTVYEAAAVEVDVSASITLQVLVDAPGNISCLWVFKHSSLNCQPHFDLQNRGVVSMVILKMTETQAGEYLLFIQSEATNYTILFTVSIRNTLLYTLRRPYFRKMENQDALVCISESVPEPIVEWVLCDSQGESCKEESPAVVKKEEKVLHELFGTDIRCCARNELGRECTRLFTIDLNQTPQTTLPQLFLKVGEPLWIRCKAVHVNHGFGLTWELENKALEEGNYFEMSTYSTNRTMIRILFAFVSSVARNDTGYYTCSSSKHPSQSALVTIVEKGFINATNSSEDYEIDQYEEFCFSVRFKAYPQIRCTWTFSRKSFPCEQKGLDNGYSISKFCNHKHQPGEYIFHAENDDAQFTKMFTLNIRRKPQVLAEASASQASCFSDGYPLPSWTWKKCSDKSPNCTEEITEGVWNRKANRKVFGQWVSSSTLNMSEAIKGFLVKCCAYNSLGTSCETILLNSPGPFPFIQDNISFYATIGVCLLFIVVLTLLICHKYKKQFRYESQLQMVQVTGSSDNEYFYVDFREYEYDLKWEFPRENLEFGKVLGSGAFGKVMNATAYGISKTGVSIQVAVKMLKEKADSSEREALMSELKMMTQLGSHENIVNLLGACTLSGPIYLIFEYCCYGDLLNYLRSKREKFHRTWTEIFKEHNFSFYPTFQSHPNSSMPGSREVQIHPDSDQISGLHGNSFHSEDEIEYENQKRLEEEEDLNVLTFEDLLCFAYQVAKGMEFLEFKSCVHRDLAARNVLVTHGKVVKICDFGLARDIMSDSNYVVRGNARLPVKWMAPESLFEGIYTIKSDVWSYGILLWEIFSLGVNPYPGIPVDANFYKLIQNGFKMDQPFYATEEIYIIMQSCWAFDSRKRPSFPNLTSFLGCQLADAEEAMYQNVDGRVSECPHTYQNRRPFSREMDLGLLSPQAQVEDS", "experiment": "Inhibition of FLT3 phosphorylation in human MOLM-13 cells at 40 nM incubated for 2 hrs by Western blot analysis relative to control", "format": "cell-based"}, "MOLM-13 [3]": {"test_system": "MOLM-13", "experiment": "Effect on FLT3 level in human MOLM-13 cells at 0.04 to 5 nM measured after 2 hrs by Western blot analysis", "format": "functional, cell-based", "conditions": "dose 0.04-5 nM"}, "MOLM-13 [4]": {"test_system": "MOLM-13", "experiment": "Induction of cell cycle arrest in human MOLM-13 cells assessed as accumulation of cells at G2 phase at 3 uM measured after 48 hrs by PI staining based flow cytometry analysis (reference value: 12.5%)", "format": "functional"}, "MOLM-13 [5]": {"test_system": "MOLM-13", "experiment": "Induction of apoptosis in human MOLM-13 cells assessed as early apoptotic cells at 0.3 uM measured after 48 hrs by annexin-V and PI staining based flow cytometry analysis (reference value: 8.92%)", "format": "functional"}, "MOLM-13 [6]": {"test_system": "MOLM-13", "experiment": "Induction of apoptosis in human MOLM-13 cells assessed as necrotic cells at 1 uM measured after 48 hrs by annexin-V and PI staining based flow cytometry analysis (reference value: 0.087%)", "format": "functional"}, "MOLM-13 [7]": {"test_system": "MOLM-13", "experiment": "Induction of apoptosis in human MOLM-13 cells assessed as necrotic cells at 3 uM measured after 48 hrs by annexin-V and PI staining based flow cytometry analysis (reference value: 0.087%)", "format": "functional"}, "[8]": {"experiment": "Tmax in Sprague-Dawley rat at 5 mg/kg, iv measured upto 48 hrs by LC-MS/MS analysis", "format": "ADME, organism-based", "conditions": "in vivo"}, "[9]": {"experiment": "MRT (0 to t) in Sprague-Dawley rat at 5 mg/kg, iv measured upto 48 hrs by LC-MS/MS analysis", "format": "ADME, organism-based", "conditions": "in vivo"}, "[10]": {"experiment": "Cmax in Sprague-Dawley rat at 20 mg/kg, po measured upto 48 hrs by LC-MS/MS analysis", "format": "ADME, organism-based", "conditions": "in vivo"}, "[11]": {"experiment": "AUC (0 to infinity) in Sprague-Dawley rat at 20 mg/kg, po measured upto 48 hrs by LC-MS/MS analysis", "format": "ADME, organism-based", "conditions": "in vivo"}, "[12]": {"experiment": "MRT (0 to t) in Sprague-Dawley rat at 20 mg/kg, po measured upto 48 hrs by LC-MS/MS analysis", "format": "ADME, organism-based", "conditions": "in vivo"}, "[13]": {"experiment": "Toxicity in female NSG mouse assessed as effect on liver at 20 to 40 mg/kg, po measured after 21 days by H and E staining based analysis", "format": "organism-based", "conditions": "in vivo, 504 h, dose 20-40 mg/kg, time 21 day"}, "[14]": {"target": "Macrophage colony-stimulating factor 1 receptor (Homo sapiens, UniProt P07333)", "experiment": "Inhibition of human FMS assessed as residual activity at 1 uM by Eurofins kinase assay relative to control"}, "[15]": {"target": "ALK tyrosine kinase receptor (Homo sapiens) (UniProt Q9UM73)", "experiment": "Inhibition of human ALK at 1 uM by Eurofins kinase assay"}, "[16]": {"target": "Tyrosine-protein kinase receptor UFO (Homo sapiens) (UniProt P30530)", "experiment": "Inhibition of human AXL at 1 uM by Eurofins kinase assay"}, "[17]": {"target": "Tyrosine-protein kinase BTK (Homo sapiens) (UniProt Q06187)", "experiment": "Inhibition of human BTK at 1 uM by Eurofins kinase assay"}, "[18]": {"target": "Serine/threonine-protein kinase B-raf (Homo sapiens) (UniProt P15056)", "sequence (P15056 whole entry)": "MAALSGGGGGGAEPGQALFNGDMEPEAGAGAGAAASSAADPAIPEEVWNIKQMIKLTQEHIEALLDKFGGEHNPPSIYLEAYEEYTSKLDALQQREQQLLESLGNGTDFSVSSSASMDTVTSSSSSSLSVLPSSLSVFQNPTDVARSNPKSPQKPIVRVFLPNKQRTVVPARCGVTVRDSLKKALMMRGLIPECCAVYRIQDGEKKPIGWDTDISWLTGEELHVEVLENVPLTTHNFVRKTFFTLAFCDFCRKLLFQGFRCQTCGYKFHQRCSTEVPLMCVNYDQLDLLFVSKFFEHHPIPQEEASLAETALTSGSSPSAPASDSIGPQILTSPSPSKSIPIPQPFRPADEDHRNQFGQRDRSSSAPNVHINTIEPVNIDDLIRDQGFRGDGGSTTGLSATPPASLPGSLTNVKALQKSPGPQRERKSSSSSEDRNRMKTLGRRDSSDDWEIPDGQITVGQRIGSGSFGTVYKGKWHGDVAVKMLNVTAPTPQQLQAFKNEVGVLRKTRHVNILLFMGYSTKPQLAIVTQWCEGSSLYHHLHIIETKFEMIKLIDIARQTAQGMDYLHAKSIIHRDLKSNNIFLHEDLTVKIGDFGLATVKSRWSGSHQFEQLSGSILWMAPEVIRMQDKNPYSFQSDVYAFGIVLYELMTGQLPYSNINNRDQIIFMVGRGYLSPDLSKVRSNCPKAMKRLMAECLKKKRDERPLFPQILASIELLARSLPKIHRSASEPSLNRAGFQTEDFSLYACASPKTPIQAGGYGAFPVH", "experiment": "Inhibition of human BRAF at 1 uM by Eurofins kinase assay"}, "[19]": {"target": "Mast/stem cell growth factor receptor Kit (Homo sapiens) (UniProt P10721)", "sequence (P10721 whole entry)": "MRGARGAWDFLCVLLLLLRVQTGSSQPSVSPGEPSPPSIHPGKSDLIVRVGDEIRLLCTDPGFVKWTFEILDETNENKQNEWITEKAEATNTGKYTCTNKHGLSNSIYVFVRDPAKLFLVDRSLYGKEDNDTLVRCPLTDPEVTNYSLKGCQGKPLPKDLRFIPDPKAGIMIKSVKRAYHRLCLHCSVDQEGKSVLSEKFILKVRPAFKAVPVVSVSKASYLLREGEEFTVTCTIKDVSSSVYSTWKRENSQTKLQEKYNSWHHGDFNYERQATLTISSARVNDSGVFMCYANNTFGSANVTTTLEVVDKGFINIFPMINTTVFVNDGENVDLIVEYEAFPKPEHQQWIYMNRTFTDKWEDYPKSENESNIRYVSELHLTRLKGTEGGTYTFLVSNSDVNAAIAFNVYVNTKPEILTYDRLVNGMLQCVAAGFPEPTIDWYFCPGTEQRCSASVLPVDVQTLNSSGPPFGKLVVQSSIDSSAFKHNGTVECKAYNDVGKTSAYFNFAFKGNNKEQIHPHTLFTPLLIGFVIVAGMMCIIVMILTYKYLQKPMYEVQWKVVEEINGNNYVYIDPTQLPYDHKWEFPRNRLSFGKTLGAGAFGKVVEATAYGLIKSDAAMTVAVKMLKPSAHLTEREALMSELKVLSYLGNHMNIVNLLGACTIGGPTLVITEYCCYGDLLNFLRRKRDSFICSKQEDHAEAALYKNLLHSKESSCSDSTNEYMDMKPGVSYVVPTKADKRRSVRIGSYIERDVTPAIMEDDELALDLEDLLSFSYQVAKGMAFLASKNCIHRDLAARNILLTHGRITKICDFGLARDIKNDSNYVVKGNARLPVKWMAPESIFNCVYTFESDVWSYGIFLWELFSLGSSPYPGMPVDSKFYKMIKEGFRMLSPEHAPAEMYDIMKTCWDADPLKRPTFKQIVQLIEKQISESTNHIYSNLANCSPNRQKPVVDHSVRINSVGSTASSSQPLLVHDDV", "experiment": "Inhibition of human ckit at 1 uM by Eurofins kinase assay"}, "[20]": {"target": "Cyclin-dependent kinase 2/cyclin A (Homo sapiens) (UniProt P24941+P20248+P78396)", "experiment": "Inhibition of human CDK2/cyclinA at 1 uM by Eurofins kinase assay", "format": "protein-complex assay"}, "Homo sapiens": {"organism": "Homo sapiens", "experiment": "Inhibition of human cSRC at 1 uM by Eurofins kinase assay"}, "[21]": {"target": "Epithelial discoidin domain-containing receptor 1 (Homo sapiens) (UniProt Q08345)", "experiment": "Inhibition of human DDR1 at 1 uM by Eurofins kinase assay"}, "[22]": {"target": "Death-associated protein kinase 1 (Homo sapiens) (UniProt P53355)", "experiment": "Inhibition of human DAPK1 at 1 uM by Eurofins kinase assay"}, "[23]": {"target": "Epidermal growth factor receptor (Homo sapiens) (UniProt P00533)", "experiment": "Inhibition of human EGFR at 1 uM by Eurofins kinase assay"}, "[24]": {"target": "Fibroblast growth factor receptor 1 (Homo sapiens) (UniProt P11362)", "sequence (P11362 22-822 limits assumed)": "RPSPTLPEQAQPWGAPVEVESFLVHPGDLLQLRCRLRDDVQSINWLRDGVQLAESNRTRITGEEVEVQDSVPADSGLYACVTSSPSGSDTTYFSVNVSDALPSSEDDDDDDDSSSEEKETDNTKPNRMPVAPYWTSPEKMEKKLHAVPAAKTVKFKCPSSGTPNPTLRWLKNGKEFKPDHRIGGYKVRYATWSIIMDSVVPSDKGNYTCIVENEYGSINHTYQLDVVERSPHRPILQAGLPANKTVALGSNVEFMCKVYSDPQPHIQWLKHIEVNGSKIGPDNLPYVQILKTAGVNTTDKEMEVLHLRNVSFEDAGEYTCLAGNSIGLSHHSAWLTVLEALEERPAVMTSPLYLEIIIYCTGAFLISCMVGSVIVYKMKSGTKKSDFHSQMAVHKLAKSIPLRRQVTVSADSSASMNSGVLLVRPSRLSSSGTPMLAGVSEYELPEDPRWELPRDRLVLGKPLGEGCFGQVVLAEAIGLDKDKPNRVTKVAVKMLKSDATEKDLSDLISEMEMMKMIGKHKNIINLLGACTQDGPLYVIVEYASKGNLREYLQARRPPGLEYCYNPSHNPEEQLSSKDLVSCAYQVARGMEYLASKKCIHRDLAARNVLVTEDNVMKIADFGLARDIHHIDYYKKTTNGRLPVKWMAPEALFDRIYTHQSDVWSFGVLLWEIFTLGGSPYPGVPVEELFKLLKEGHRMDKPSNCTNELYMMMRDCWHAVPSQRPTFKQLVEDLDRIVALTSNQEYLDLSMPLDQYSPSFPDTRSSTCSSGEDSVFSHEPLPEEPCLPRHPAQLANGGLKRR", "experiment": "Inhibition of human FGFR1 at 1 uM by Eurofins kinase assay"}, "[25]": {"target": "Fibroblast growth factor receptor 3 (Homo sapiens) (UniProt P22607)", "sequence (P22607 23-806 limits assumed)": "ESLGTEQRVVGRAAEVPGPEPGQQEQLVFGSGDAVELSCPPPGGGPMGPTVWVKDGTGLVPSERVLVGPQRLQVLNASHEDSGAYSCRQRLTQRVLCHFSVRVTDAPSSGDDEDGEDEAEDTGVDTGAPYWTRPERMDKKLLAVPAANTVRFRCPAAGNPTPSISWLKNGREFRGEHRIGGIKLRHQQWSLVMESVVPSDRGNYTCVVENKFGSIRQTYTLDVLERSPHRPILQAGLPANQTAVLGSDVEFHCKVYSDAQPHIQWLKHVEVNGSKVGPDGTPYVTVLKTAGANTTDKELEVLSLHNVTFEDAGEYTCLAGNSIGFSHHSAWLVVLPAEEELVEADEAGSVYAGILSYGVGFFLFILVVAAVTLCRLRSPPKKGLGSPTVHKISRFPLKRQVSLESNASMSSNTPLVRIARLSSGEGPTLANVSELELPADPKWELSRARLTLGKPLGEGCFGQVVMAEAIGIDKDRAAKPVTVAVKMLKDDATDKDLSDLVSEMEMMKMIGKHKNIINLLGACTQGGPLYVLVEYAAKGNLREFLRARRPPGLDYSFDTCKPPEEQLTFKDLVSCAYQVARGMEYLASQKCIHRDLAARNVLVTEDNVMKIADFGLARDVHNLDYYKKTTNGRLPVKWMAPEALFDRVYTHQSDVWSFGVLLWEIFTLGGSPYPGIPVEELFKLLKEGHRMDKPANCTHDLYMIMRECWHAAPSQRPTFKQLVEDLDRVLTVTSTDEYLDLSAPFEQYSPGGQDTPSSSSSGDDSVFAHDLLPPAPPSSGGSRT", "experiment": "Inhibition of human FGFR3 at 1 uM by Eurofins kinase assay"}, "[26]": {"target": "Fibroblast growth factor receptor 4 (Homo sapiens) (UniProt P22455)", "sequence (P22455 22-802 limits assumed)": "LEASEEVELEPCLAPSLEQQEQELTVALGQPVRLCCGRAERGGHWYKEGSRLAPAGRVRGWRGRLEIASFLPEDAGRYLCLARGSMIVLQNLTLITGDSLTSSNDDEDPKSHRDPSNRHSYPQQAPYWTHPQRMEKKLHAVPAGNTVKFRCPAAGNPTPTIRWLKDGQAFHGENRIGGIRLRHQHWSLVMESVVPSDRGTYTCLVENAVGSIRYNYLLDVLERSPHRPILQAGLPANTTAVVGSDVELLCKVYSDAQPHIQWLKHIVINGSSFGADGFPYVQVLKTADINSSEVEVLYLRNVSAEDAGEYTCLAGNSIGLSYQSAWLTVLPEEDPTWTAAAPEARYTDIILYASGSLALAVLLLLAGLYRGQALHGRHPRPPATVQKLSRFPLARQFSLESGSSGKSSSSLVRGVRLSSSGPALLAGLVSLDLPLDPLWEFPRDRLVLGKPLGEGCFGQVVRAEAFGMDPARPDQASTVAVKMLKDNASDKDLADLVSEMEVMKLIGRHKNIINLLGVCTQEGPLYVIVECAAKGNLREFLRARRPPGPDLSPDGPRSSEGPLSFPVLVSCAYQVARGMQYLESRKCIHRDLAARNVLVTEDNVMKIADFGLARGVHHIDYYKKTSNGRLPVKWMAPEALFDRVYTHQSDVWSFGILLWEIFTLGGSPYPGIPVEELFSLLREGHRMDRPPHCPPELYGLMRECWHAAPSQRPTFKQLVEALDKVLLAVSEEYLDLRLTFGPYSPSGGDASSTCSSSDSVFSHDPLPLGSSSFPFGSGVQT", "experiment": "Inhibition of human FGFR4 at 1 uM by Eurofins kinase assay"}, "[27]": {"target": "Receptor-type tyrosine-protein kinase FLT3 (Homo sapiens) (UniProt P36888)", "experiment": "Inhibition of human FLT3 at 1 uM by Eurofins kinase assay"}, "[28]": {"target": "Insulin receptor (Homo sapiens) (UniProt P06213)", "experiment": "Inhibition of human INSR at 1 uM by Eurofins kinase assay"}, "[29]": {"target": "Tyrosine-protein kinase JAK2 (Homo sapiens) (UniProt O60674)", "experiment": "Inhibition of human JAK2 at 1 uM by Eurofins kinase assay"}, "[30]": {"target": "Dual specificity mitogen-activated protein kinase kinase 1 (Homo sapiens) (UniProt Q02750)", "experiment": "Inhibition of human MEK1 at 1 uM by Eurofins kinase assay"}, "[31]": {"target": "Receptor-interacting serine/threonine-protein kinase 1 (Homo sapiens) (UniProt Q13546)", "experiment": "Inhibition of human RIPK1 at 1 uM by Eurofins kinase assay"}, "[32]": {"target": "Proto-oncogene tyrosine-protein kinase ROS (Homo sapiens) (UniProt P08922)", "experiment": "Inhibition of human Ros at 1 uM by Eurofins kinase assay"}, "[33]": {"target": "Angiopoietin-1 receptor (Homo sapiens) (UniProt Q02763)", "experiment": "Inhibition of human […] at 1 uM by Eurofins kinase assay"}, "[34]": {"target": "Non-receptor tyrosine-protein kinase TYK2 (Homo sapiens) (UniProt P29597)", "experiment": "Inhibition of human TYK2 at 1 uM by Eurofins kinase assay"}, "[35]": {"target": "Wee1-like protein kinase (Homo sapiens) (UniProt P30291)", "experiment": "Inhibition of human Wee1 at 1 uM by Eurofins kinase assay"}}, "note": "Active and inactive are the calls of the source. No cut-off for these calls is given here.", "data": [{"smiles": "O=C(Nc1ccc(Oc2ccnc(NC(=O)N3CC(O)C3)c2)c(F)c1)c1cn(-c2cccnc2)nn1", "values": [{"measurement": "IC50", "setting": "MV4-11", "result": 0.13, "unit": "µM"}, {"measurement": "IC50", "setting": "MOLM-13 [1]", "result": 0.062, "unit": "µM"}, {"measurement": "IC50", "setting": "HL-60", "result": 7.7, "unit": "µM"}, {"measurement": "IC50", "setting": "K562", "result": 16.6, "unit": "µM"}, {"measurement": "IC50", "setting": "EBC-1", "result": "> 30", "unit": "µM"}, {"measurement": "inhibition", "setting": "[2]", "result": 100, "unit": "%"}, {"measurement": "Activity", "setting": "MOLM-13 [3]", "result": "Not active; Compound Barely Affect Flt3 Level"}, {"measurement": "Activity", "setting": "MOLM-13 [4]", "result": 1.05, "unit": "%"}, {"measurement": "Activity", "setting": "MOLM-13 [5]", "result": 25, "unit": "%"}, {"measurement": "Activity", "setting": "MOLM-13 [6]", "result": 0.26, "unit": "%"}, {"measurement": "Activity", "setting": "MOLM-13 [7]", "result": 0.097, "unit": "%"}, {"measurement": "Tmax", "setting": "[8]", "result": 1.8, "unit": "min"}, {"measurement": "MRT last at 48 h", "setting": "[9]", "result": 3.01, "unit": "h"}, {"measurement": "Cmax", "setting": "[10]", "result": 8020, "unit": "ng/mL"}, {"measurement": "AUC(0-inf)", "setting": "[11]", "result": 46100, "unit": "ng·h/mL"}, {"measurement": "MRT last at 48 h", "setting": "[12]", "result": 4.49, "unit": "h"}, {"measurement": "Activity", "setting": "[13]", "result": "Non-toxic"}, {"measurement": "Activity", "setting": "[14]", "result": 22, "unit": "%"}, {"measurement": "inhibition", "setting": "[15]", "result": "inactive"}, {"measurement": "inhibition", "setting": "[16]", "result": "inactive"}, {"measurement": "inhibition", "setting": "[17]", "result": "inactive"}, {"measurement": "inhibition", "setting": "[18]", "result": "inactive"}, {"measurement": "inhibition", "setting": "[19]", "result": "inactive"}, {"measurement": "inhibition", "setting": "[20]", "result": "inactive"}, {"measurement": "inhibition", "setting": "Homo sapiens", "result": "inactive"}, {"measurement": "inhibition", "setting": "[21]", "result": "inactive"}, {"measurement": "inhibition", "setting": "[22]", "result": "inactive"}, {"measurement": "inhibition", "setting": "[23]", "result": "inactive"}, {"measurement": "inhibition", "setting": "[24]", "result": "inactive"}, {"measurement": "inhibition", "setting": "[25]", "result": "inactive"}, {"measurement": "inhibition", "setting": "[26]", "result": "inactive"}, {"measurement": "inhibition", "setting": "[27]", "result": "inactive"}, {"measurement": "inhibition", "setting": "[28]", "result": "inactive"}, {"measurement": "inhibition", "setting": "[29]", "result": "inactive"}, {"measurement": "inhibition", "setting": "[30]", "result": "inactive"}, {"measurement": "inhibition", "setting": "[31]", "result": "inactive"}, {"measurement": "inhibition", "setting": "[32]", "result": "inactive"}, {"measurement": "inhibition", "setting": "[33]", "result": "inactive"}, {"measurement": "inhibition", "setting": "[34]", "result": "inactive"}, {"measurement": "inhibition", "setting": "[35]", "result": "inactive"}]}]}
